Target: T1, human GOAT (Homo sapiens, UniProt Q96T53)
T1 construct: made in house; host or cells: Sf9 insect cells (BacToBac baculovirus, pFastBac1 vector); microsome fraction
T1 sequence (Q96T53 1-435): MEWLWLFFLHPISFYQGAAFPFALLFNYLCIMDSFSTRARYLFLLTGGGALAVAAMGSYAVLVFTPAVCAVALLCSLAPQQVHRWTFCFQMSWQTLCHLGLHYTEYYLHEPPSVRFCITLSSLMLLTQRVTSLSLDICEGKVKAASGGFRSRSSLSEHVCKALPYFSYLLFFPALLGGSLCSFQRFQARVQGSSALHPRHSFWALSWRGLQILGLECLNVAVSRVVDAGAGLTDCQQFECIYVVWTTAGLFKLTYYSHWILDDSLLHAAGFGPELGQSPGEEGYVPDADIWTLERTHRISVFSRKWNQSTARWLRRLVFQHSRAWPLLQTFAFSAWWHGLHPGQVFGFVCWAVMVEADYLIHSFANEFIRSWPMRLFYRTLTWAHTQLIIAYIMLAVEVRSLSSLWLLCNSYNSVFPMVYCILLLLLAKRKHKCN
Assay: GOAT enzyme activity measurement by HTRF method (human GOAT-expressing microsome fraction)
Type: biochemical
Conditions: 10 μM compound; human GOAT-expressing Sf9 microsome fraction; octanoyl-CoA and Ghrelin-biotin substrates; 0% control without compound, 100% control without enzyme
Procedure: Human GOAT (Accession NO: EU518495) cDNA was amplified by PCR including reaction of (1) 98° C., 1 min, (2) 35 repeats of 98° C., 10 sec·65° C., 15 sec·72° C., 80 sec, and (3) 72° C., 5 min, using human stomach cDNA library (Takara Bio) as a template and Pyrobest DNA Polymerase (Takara Bio). The amplified fragment was treated with restriction enzymes, inserted into Stu I/Not I sites of pFastBacl (Invitrogen) by using Ligation High (TOYOBO), and transfected into ECOS JM109 (Nippon Gene) to construct pFB/hGOAT.
Production of Baculovirus and Preparation of Insect Cell Microsome Fraction
For preparation of baculovirus from pFB/hGOAT, BacToBac baculovirus expression system (Invitrogen) was used. The virus titer was measured by Real-Time PCR using SYBR Green (Takara Bio). Sf9 cells were infected with the obtained baculovirus at Multiplicity of Infection (MOI)=0.2, and cultured for 70 hr. The Sf9 cells were recovered, suspended in a suspension buffer (TBS (0.3 M NaCl), 1 mM DTT, 1 mM EDTA, Complete (Roche) (1 tablet/50 mL)), and the cells were disrupted twice on ice at 20000 rpm, 30 sec using a polytron homogenizer. The cell disruption solution was centrifuged at 1000 rpm for 10 min at 4° C., the supernatant was further ultracentrifuged at 40000 rpm for 30 min at 4° C. and the precipitate was recovered. The obtained precipitate was suspended in the suspension buffer used above to give a human GOAT-expressing microsome fraction. The protein level was measured using BCA Protein assay Reagent (PIERCE).
Enzyme Activity Measurement by HTRF Method
A compound solution (2 μL) diluted with an assay buffer containing 50 mM Tris-HCl (pH 7.5), 0.5% TWEEN20, and Complete to 15% DMSO and 90 μg/mL human GOAT-expressing microsome fraction (2 μL) were incubated at room temperature for 20 min, after which a substrate mixed solution (2 μL) containing 30 μM octanoyl-CoA (CHEM-IMPLEX) and 3 μM Ghrelin-biotin ([…]epsilon aminocaproic acid-biotin (Greiner Coutom synthesis)) was added to 384 white small volume plate (Greiner). After reaction for 20 min, 2 μL of citrate buffer (pH3) (mixed solution of 0.1 M citric acid (39.8 mL) and 0.2 M Na2HPO4 (10.2 mL)), 2 μL of 25 nM anti-active ghrelin antibody (produced in mouse), 5 μL of Eu(K)-Anti Mouse IgG Pab (Cis Bio) 100-fold diluted with HTRF detection buffer (Cis Bio) and 5 μL of streptavidin-Xlent (Cis Bio) 66.6-fold diluted with HTRF detection buffer (Cis Bio) were added. After incubation at room temperature for 1 hr or longer, the fluorescence values at 620 nm and 665 nm were measured by Envision (PerkinElmer). The data was calculated [(665 nm signal/620 nm signal)×10^4], and the inhibitory activity against human GOAT was shown by the data where 0% control was without compound, and 100% control was without enzyme.

**Q.** For `O=C(O)CC1CS(=O)(=O)c2cc(OCc3ccc(Cl)cc3Cl)ccc21` (centres unmarked) [Example 52, (6-((2,4-Dichlorobenzyl)oxy)-1,1-dioxido-2,3-dihydro-1-benzothiophen-3-yl)acetic acid], which inhibition at 10 µM is on record?
**A.** 79%

**Q.** Which inhibition at 10 µM does the source give for `CCOC(=O)CNC(=O)Cc1csc2cc(OCc3ccc(Cl)cc3Cl)ccc12` [Example 53, Ethyl N-((6-((2,4-dichlorobenzyl)oxy)-1-benzothiophen-3-yl)acetyl)glycinate] here?
**A.** 56%

**Q.** `COC(=O)[C@H](CO)NC(=O)Cc1csc2cc(OCc3ccc(Cl)cc3Cl)ccc12` [Example 54, Methyl N-((6-((2,4-dichlorobenzyl)oxy)-1-benzothiophen-3-yl)acetyl)serinate] was tested. Which inhibition at 10 µM did it give?
**A.** 86%

**Q.** `O=C(O)CNC(=O)Cc1csc2cc(OCc3ccc(Cl)cc3Cl)ccc12` [Example 55, N-((6-((2,4-Dichlorobenzyl)oxy)-1-benzothiophen-3-yl)acetyl)glycine] was tested. Which inhibition at 10 µM did it give?
**A.** 95%

**Q.** How did the inhibition at 10 µM turn out when `O=C(Cc1csc2cc(OCc3ccc(Cl)cc3Cl)ccc12)N[C@@H](CO)C(=O)O` [Example 56, N-((6-((2,4-Dichlorobenzyl)oxy)-1-benzothiophen-3-yl)acetyl)serine] was run?
**A.** 97%

**Q.** `O=C(O)Cc1csc2cc(SCc3ccc(Cl)cc3Cl)ccc12` [Example 80, (6-((2,4-Dichlorobenzyl)sulfanyl)-1-benzothiophen-3-yl)acetic acid] was tested. Which inhibition at 10 µM did it give?
**A.** 99.3%

**Q.** How did the inhibition at 10 µM turn out when `O=C(O)Cc1csc2cc(S(=O)(=O)Cc3ccc(Cl)cc3Cl)ccc12` [Example 83, (6-((2,4-Dichlorobenzyl)sulfonyl)-1-benzothiophen-3-yl)acetic acid] was run?
**A.** 83%

**Q.** For `O=C(O)Cc1csc2cc([S+]([O-])Cc3ccc(Cl)cc3Cl)ccc12` (centres unmarked) [Example 84, (6-((2,4-Dichlorobenzyl)sulfinyl)-1-benzothiophen-3-yl)acetic acid], which inhibition at 10 µM is on record?
**A.** 67%

**Q.** Which inhibition at 10 µM does the source give for `Cc1nc(C(F)(F)F)ccc1COc1ccc2c(CC(=O)O)csc2c1` [Example 135, (6-((2-Methyl-6-(trifluoromethyl)pyridin-3-yl)methoxy)-1-benzothiophen-3-yl)acetic acid] here?
**A.** 93.1%

**Q.** How did the inhibition at 10 µM turn out when `Cc1nc(C(F)(F)F)ncc1COc1ccc2c(CC(=O)O)csc2c1` [Example 137, (6-((4-Methyl-2-(trifluoromethyl)pyrimidin-5-yl)methoxy)-1-benzothiophen-3-yl)acetic acid] was run?
**A.** 97.3%

**Q.** With `CCS(=O)(=O)NC(=O)Cc1csc2cc(OCc3ccc(Cl)cc3Cl)ccc12` [Example 138, 2-(6-((2,4-Dichlorobenzyl)oxy)-1-benzothiophen-3-yl)-N-(ethylsulfonyl)acetamide] as the compound, how does the inhibition at 10 µM read?
**A.** 83.2%

**Q.** Which inhibition at 10 µM does the source give for `Cc1nc(C(F)(F)F)ncc1COc1cc(C)c2c(CC(=O)O)csc2c1` [Example 140, (4-Methyl-6-((4-methyl-2-(trifluoromethyl)pyrimidin-5-yl)methoxy)-1-benzothiophen-3-yl)acetic acid] here?
**A.** 100%

**Q.** `Cc1ccc(CCc2ccc3c(CC(=O)O)csc3c2)c(C)n1` [Example 182, (6-(2-(2,6-Dimethylpyridin-3-yl)ethyl)-1-benzothiophen-3-yl)acetic acid] was tested. Which inhibition at 10 µM did it give?
**A.** 97.3%

**Q.** How did the inhibition at 10 µM turn out when `Cc1ccc(/C=C/c2ccc3c(CC(=O)O)csc3c2)c(C)n1` [Example 183, (6-((E)-2-(2,6-dimethylpyridin-3-yl)vinyl)-1-benzothiophen-3-yl)acetic acid] was run?
**A.** 83.1%

**Q.** For `CC(=O)NCCc1coc2cc(OCc3ccc(Cl)cc3Cl)ccc12` [Example 196, N-(2-(6-(2,4-Dichlorobenzyloxy)-1-benzofuran-3-yl)ethyl)acetamide], which inhibition at 10 µM is on record?
**A.** 73%

**Q.** With `CC(=O)NCC[C@@H]1COc2cc(OCc3ccc(Cl)cc3Cl)ccc21` [Example 197, N-(2-((3S)-6-((2,4-Dichlorobenzyl)oxy)-2,3-dihydro-1-benzofuran-3-yl)ethyl)acetamide] as the compound, how does the inhibition at 10 µM read?
**A.** 69%

**Q.** For `CCC(=O)NCC[C@@H]1COc2cc(OCc3ccc(Cl)cc3Cl)ccc21` [Example 198, N-(2-((3S)-6-((2,4-Dichlorobenzyl)oxy)-2,3-dihydro-1-benzofuran-3-yl)ethyl)propanamide], which inhibition at 10 µM is on record?
**A.** 59%

**Q.** For `O=C(O)C[C@@H]1COc2cc(OCc3ccc(Cl)cc3Cl)ccc21` [Example 262, ((3S)-6-((2,4-Dichlorobenzyl)oxy)-2,3-dihydro-1-benzofuran-3-yl)acetic acid], which inhibition at 10 µM is on record?
**A.** 93%

**Q.** With `O=C(O)C[C@H]1COc2cc(OCc3ccc(Cl)cc3Cl)ccc21` [Example 263, ((3R)-6-((2,4-Dichlorobenzyl)oxy)-2,3-dihydro-1-benzofuran-3-yl)acetic acid] as the compound, how does the inhibition at 10 µM read?
**A.** 86%

**Q.** For `O=C(O)C1(CO)COc2cc(OCc3ccc(Cl)cc3Cl)ccc21` (centres unmarked) [Example 279, 6-((2,4-Dichlorobenzyl)oxy)-3-(hydroxymethyl)-2,3-dihydro-1-benzofuran-3-carboxylic acid], which inhibition at 10 µM is on record?
**A.** 81%

**Q.** How did the inhibition at 10 µM turn out when `COCC1(C(=O)O)COc2cc(OCc3ccc(Cl)cc3Cl)ccc21` (centres unmarked) [Example 281, 6-((2,4-Dichlorobenzyl)oxy)-3-(methoxymethyl)-2,3-dihydro-1-benzofuran-3-carboxylic acid] was run?
**A.** 85%

**Q.** How did the inhibition at 10 µM turn out when `Cc1ccc(COc2cc(C)c3c(c2C)OCC3CC(=O)O)c(C)n1` (centres unmarked) [Example 289, (6-((2,6-Dimethylpyridin-3-yl)methoxy)-4,7-dimethyl-2,3-dihydro-1-benzofuran-3-yl)acetic acid] was run?
**A.** 94.8%

**Q.** How did the inhibition at 10 µM turn out when `Cc1cc(OCc2ccc(Cl)cc2Cl)c(C)c2c1C(CC(=O)O)CO2` (centres unmarked) [Example 291, (6-((2,4-Dichlorobenzyl)oxy)-4,7-dimethyl-2,3-dihydro-1-benzofuran-3-yl)acetic acid] was run?
**A.** 96.2%

**Q.** With `COC(=O)Cc1csc2cc(OCc3cc(C(F)(F)F)nn3C)cc(F)c12` [Example 302, Methyl (4-fluoro-6-((1-methyl-3-(trifluoromethyl)-1H-pyrazol-5-yl)methoxy)-1-benzothiophen-3-yl)acetate] as the compound, how does the inhibition at 10 µM read?
**A.** 99.9%

**Q.** For `Cn1nc(C(F)(F)F)cc1COc1cc(F)c2c(CC(=O)O)csc2c1` [Example 303, (4-Fluoro-6-((1-methyl-3-(trifluoromethyl)-1H-pyrazol-5-yl)methoxy)-1-benzothiophen-3-yl)acetic acid], which inhibition at 10 µM is on record?
**A.** 104%

**Q.** For `COC(=O)Cc1csc2cc(OCc3ccc(C(F)(F)F)nc3C)cc(F)c12` [Example 304, Methyl (4-fluoro-6-((2-methyl-6-(trifluoromethyl)pyridin-3-yl)methoxy)-1-benzothiophen-3-yl)acetate], which inhibition at 10 µM is on record?
**A.** 94.9%

**Q.** For `Cc1nc(C(F)(F)F)ccc1COc1cc(F)c2c(CC(=O)O)csc2c1` [Example 305, (4-Fluoro-6-((2-methyl-6-(trifluoromethyl)pyridin-3-yl)methoxy)-1-benzothiophen-3-yl)acetic acid], which inhibition at 10 µM is on record?
**A.** 102%

**Q.** For `COC(=O)Cc1c(C)sc2cc(OCc3cc(C(F)(F)F)nn3C)cc(Cl)c12` [Example 306, Methyl (4-chloro-2-methyl-6-((1-methyl-3-(trifluoromethyl)-1H-pyrazol-5-yl)methoxy)-1-benzothiophen-3-yl)acetate], which inhibition at 10 µM is on record?
**A.** 99.5%

**Q.** How did the inhibition at 10 µM turn out when `Cc1sc2cc(OCc3cc(C(F)(F)F)nn3C)cc(Cl)c2c1CC(=O)O` [Example 307, (4-Chloro-2-methyl-6-((1-methyl-3-(trifluoromethyl)-1H-pyrazol-5-yl)methoxy)-1-benzothiophen-3-yl)acetic acid] was run?
**A.** 106%
